pIC50: −log10 of the molar value. Values after ≈ are worked out from the molar mass of the structure shown. Numbered stars: 1 amine (or outer) side, 2 acyl side, 3 side chain; on linkers, the order of the positions; unused ones are H or OH. Bridge positions count the residues as written; N and C are the ends. Square brackets hold non-standard residues; d marks the D form. Peptide text beside a SMILES is read from it. * marks the point of attachment. Orn(4R-OH,5R-OH) = O=C([C@H](C[C@@H](O)[C@@H](O)N[*:3])N[*:1])[*:2]; X3 = O=C([C@@H](N[*:1])[C@H](O)[C@@H](O)c1ccc(OP(=O)(O)O)cc1)[*:2]; hTyr(3S-OH,4S-OH) = N[C@H](C(=O)O)[C@H](O)[C@@H](O)c1ccc(O)cc1; X4 = O=C([C@@H](N[*:1])[C@H](O)[C@H](O)c1ccc(O)cc1)[*:2]; X2 = O=C([C@@H](N[*:1])[C@H](O)[C@@H](O)c1ccccc1)[*:2]; X6 = O=C(Oc1ccc(O)cc1)[C@@H](O)[C@H](N[*:1])C(=O)[*:2]; hTyr(3R-OH) = N[C@H](C(=O)O)[C@H](O)Cc1ccc(O)cc1; Gln(3R-OH) = NC(=O)C[C@@H](O)[C@H](N)C(=O)O; X5 = O=C([C@@H](N[*:1])[C@H](O)CO)[*:2]; Pro(3S-OH) = O=C(O)[C@H]1NCC[C@@H]1O; Hyp = O=C(O)[C@@H]1C[C@@H](O)CN1; X1 = CCC(C)CC(C)CCCCCCCCC(=O)* Where only a bound is given, the exact number is not on record here.

Assay [1] deals with Candida albicans. Briefly: The compound was tested for inhibition of 1,3-beta-glucan synthesis in a preparation containing membranes from Candida albicans (MY1208). Type of assay: functional.
For another assay, the system named is Candida tropicalis. The assay is described as follows: The compound was tested for its antifungal activity against Candida tropicalis (MY1012). Type of assay: functional.
The subject of assay [2] is Mus musculus. The assay is described as follows: Minimum effective dose required for 99.9% reduction of viable CFUs recoverable from mouse kidneys infected with Candida albicans (MY1208) using in vivo Target Organ Kidney Assay (TOKA). It is filed as functional.
In assay [3] the test system is Candida albicans. The assay is described as follows: The compound was tested for its antifungal activity against Candida albicans (MY1055). It is filed as functional.
For another assay, the system named is Candida parapsilosis. Briefly: The compound was tested for its antifungal activity against Candida parapsilosis (MY1010). It is filed as functional. The note with it: Lodderomyces parapsilosis.
The species named for assay [4] is Mus musculus. The assay is described as follows: Minimum effective dose required for 99.9% reduction of viable CFUs recoverable from mouse kidneys compared with sham-treated controls. Type of assay: functional, Kidney.

As for `CCC(C)CC(C)CCCCCCCCC(=O)N[C@H]1C[C@@H](O)[C@@H](O)NC(=O)[C@@H]2[C@@H](O)CCN2C(=O)[C@H]([C@H](O)CC(N)=O)NC(=O)[C@H]([C@H](O)[C@@H](O)c2ccccc2)NC(=O)[C@@H]2C[C@@H](O)CN2C(=O)[C@H]([C@@H](C)O)NC1=O` (stereo partly drawn) (X1-[Orn(4R-OH,5R-OH)]T[Hyp][X2][Gln(3R-OH)][Pro(3S-OH)]; lactam 1-C), the pIC50 – broadly, −log10 of the IC50, conventionally taken in molar units – in the assay with Candida albicans [1] is less than 5.00. Moreover, the results for the MFC against Candida tropicalis, in the assay with Candida albicans [3] and against Candida parapsilosis were 1 µg/mL (≈ 0.953 µM), 4 µg/mL (≈ 3.81 µM) and more than 128 µg/mL, respectively. For the same molecule, in the assay on Mus musculus [2], the MED99.9 is more than 6 mg/kg.

In turn, `CCC(C)CC(C)CCCCCCCCC(=O)N[C@H]1C[C@@H](O)[C@@H](O)NC(=O)[C@@H]2[C@@H](O)CCN2C(=O)[C@H]([C@H](O)CC(N)=O)NC(=O)[C@H]([C@H](O)[C@@H](O)c2ccc(OP(=O)(O)O)cc2)NC(=O)[C@@H]2C[C@@H](O)CN2C(=O)[C@H]([C@@H](C)O)NC1=O` (stereo partly drawn) (X1-[Orn(4R-OH,5R-OH)]T[Hyp][X3][Gln(3R-OH)][Pro(3S-OH)]; lactam 1-C) showed a pIC50 with Candida albicans [1] of less than 5.00. Also, the minimum fungicidal concentration (MFC) (in general, the smallest concentration meeting the test's criterion for killing the fungus) against Candida tropicalis was found to be 4 µg/mL (≈ 3.49 µM); in the assay on Candida albicans [3], 2 µg/mL (≈ 1.75 µM); with Candida parapsilosis, 32 µg/mL (≈ 27.9 µM). The same molecule yielded an MED99.9 in the assay with Mus musculus [2] of 6 mg/kg.

In the assay on Candida albicans [1], `CCC(C)CC(C)CCCCCCCCC(=O)N[C@H]1C[C@@H](O)[C@@H](O)NC(=O)[C@@H]2[C@@H](O)CCN2C(=O)[C@H]([C@H](O)CC(N)=O)NC(=O)[C@H]([C@H](O)[C@H](O)c2ccc(O)cc2)NC(=O)[C@@H]2C[C@@H](O)CN2C(=O)[C@H]([C@@H](C)O)NC1=O` (stereo partly drawn) (X1-[Orn(4R-OH,5R-OH)]T[Hyp][X4][Gln(3R-OH)][Pro(3S-OH)]; lactam 1-C) had a negative-log IC50 (pIC50) of 5.30. Moreover, the MFC in the assay with Candida tropicalis is 64 µg/mL (≈ 60.1 µM); in the assay on Candida albicans [3] it was 8 µg/mL (≈ 7.51 µM); with Candida parapsilosis it was more than 128 µg/mL. In the assay filed under Mus musculus [4], this molecule displayed an MED99.9 of more than 6 mg/kg.

Regarding `CCC(C)CC(C)CCCCCCCCC(=O)N[C@H]1C[C@@H](O)[C@@H](O)NC(=O)[C@@H]2[C@@H](O)CCN2C(=O)[C@H]([C@H](O)CC(N)=O)NC(=O)[C@H]([C@H](O)CO)NC(=O)[C@@H]2C[C@@H](O)CN2C(=O)[C@H]([C@@H](C)O)NC1=O` (stereo partly drawn) (X1-[Orn(4R-OH,5R-OH)]T[Hyp][X5][Gln(3R-OH)][Pro(3S-OH)]; lactam 1-C), the pIC50 with Candida albicans [1] is less than 6.00. The values for the MFC in the assay with Candida tropicalis, against Candida albicans [3] and against Candida parapsilosis were 8 µg/mL (≈ 8.22 µM), 32 µg/mL (≈ 32.9 µM) and 8 µg/mL (≈ 8.22 µM), respectively.

On to `CCC(C)CC(C)CCCCCCCCC(=O)N[C@H]1C[C@@H](O)[C@@H](O)NC(=O)[C@@H]2[C@@H](O)CCN2C(=O)[C@H]([C@H](O)CC(N)=O)NC(=O)[C@H]([C@H](O)C(=O)Oc2ccc(O)cc2)NC(=O)[C@@H]2C[C@@H](O)CN2C(=O)[C@H]([C@@H](C)O)NC1=O` (stereo partly drawn) (X1-[Orn(4R-OH,5R-OH)]T[Hyp][X6][Gln(3R-OH)][Pro(3S-OH)]; lactam 1-C), for which the pIC50 with Candida albicans [1] is less than 6.00. Also, the MFC amounted to 8 µg/mL (≈ 7.41 µM) in the assay on Candida tropicalis, 32 µg/mL (≈ 29.7 µM) against Candida albicans [3] and 1 µg/mL (≈ 0.927 µM) with Candida parapsilosis.

In the assay with Candida albicans [1], `CCC(C)CC(C)CCCCCCCCC(=O)N[C@H]1C[C@@H](O)[C@@H](O)NC(=O)[C@@H]2[C@@H](O)CCN2C(=O)[C@H]([C@H](O)CC(N)=O)NC(=O)[C@H]([C@H](O)Cc2ccc(O)cc2)NC(=O)[C@@H]2C[C@@H](O)CN2C(=O)[C@H]([C@@H](C)O)NC1=O` (stereo partly drawn) (X1-[Orn(4R-OH,5R-OH)]T[Hyp][hTyr(3R-OH)][Gln(3R-OH)][Pro(3S-OH)]; lactam 1-C) showed a negative-log IC50 (pIC50) of 7.40. Also, the values for the minimum fungicidal concentration (MFC) in the assay with Candida tropicalis, against Candida albicans [3] and against Candida parapsilosis were less than 0.06 µg/mL, 0.25 µg/mL (≈ 0.238 µM) and 4 µg/mL (≈ 3.81 µM), respectively. In the assay listed under Mus musculus [4], this molecule yielded an MED99.9 of 3 mg/kg.

For `CCC(C)CC(C)CCCCCCCCC(=O)N[C@H]1C[C@@H](O)[C@@H](O)NC(=O)[C@@H]2[C@@H](O)CCN2C(=O)[C@H]([C@H](O)CC(N)=O)NC(=O)[C@H]([C@H](O)[C@@H](O)c2ccc(O)cc2)NC(=O)[C@@H]2C[C@@H](O)CN2C(=O)[C@H]([C@@H](C)O)NC1=O` (stereo partly drawn) (X1-[Orn(4R-OH,5R-OH)]T[Hyp][hTyr(3S-OH,4S-OH)][Gln(3R-OH)][Pro(3S-OH)]; lactam 1-C), in the assay on Candida albicans [1], the pIC50 was 7.15. Moreover, the MFC in the assay with Candida tropicalis amounted to 0.06 µg/mL (≈ 0.0563 µM); against Candida albicans [3], 0.25 µg/mL (≈ 0.235 µM); in the assay with Candida parapsilosis it was 4 µg/mL (≈ 3.76 µM). This molecule had an MED99.9 with Mus musculus [2] of 6 mg/kg.

Values taken from ChEMBL document CHEMBL1127119, “Pneumocandin antifungal lipopeptides. The phenolic hydroxyl is required for 1,3--glucan synthesis inhibition” (Bioorg Med Chem Lett, 1993).
